The NIST ThermoML archive (doi:10.1016/j.jct.2017.02.014)

Tests used:
[1] = refractive index (other wavelength) (dimensionless); conditions: 100 kPa, Liquid, Wavelength=632.8 nm, minimum deviation angle method
[2] = refractive index (Na D-line) (dimensionless); conditions: 298.15 K; 101.33 kPa; Liquid; Standard Abbe refractometry
[3] = refractive index (other wavelength) (dimensionless); xn = mol fraction of the nth substance listed; conditions: 100 kPa, Liquid, Wavelength=632.8 nm, minimum deviation angle method, x2 = 0

CCCC[n+]1ccccc1.F[B-](F)(F)F [1-butylpyridinium tetrafluoroborate]
[1]
Conditions | refractive index
281.73 K | 1.4481
282.78 K | 1.4478
284.14 K | 1.4475
285.74 K | 1.4471
286.94 K | 1.4468
288.24 K | 1.4464
289.38 K | 1.4461
290.37 K | 1.4458
292.15 K | 1.4454
293.41 K | 1.4451
295 K | 1.4446
296.89 K | 1.444

Conditions | refractive index
[2] | 1.4459

CCO [ethanol]
[1]
Conditions | refractive index
282.04 K | 1.3645
283.11 K | 1.364
284.04 K | 1.3637
285.65 K | 1.363
286.62 K | 1.3626
288.17 K | 1.362
289.33 K | 1.3615
290.8 K | 1.3609
291.84 K | 1.3604
292.94 K | 1.36
293.77 K | 1.3596
295.49 K | 1.3589
296.51 K | 1.3585
297.44 K | 1.3581
298.14 K | 1.3578

Conditions | refractive index
[2] | 1.3596

CCO [ethanol] + CCCC[n+]1ccccc1.F[B-](F)(F)F
[3]
Conditions | refractive index
282.04 K | 1.3645
283.11 K | 1.364
284.04 K | 1.3637
285.65 K | 1.363
286.62 K | 1.3626
288.17 K | 1.362
289.33 K | 1.3615
290.8 K | 1.3609
291.84 K | 1.3604
292.94 K | 1.36
293.77 K | 1.3596
295.49 K | 1.3589
296.51 K | 1.3585
297.44 K | 1.3581
298.14 K | 1.3578
